Converted amounts (≈) assume the structure as drawn.
How the values were obtained:
A549 cells = test: MTT anti-proliferative assay, A549; format: cell-based, human; settings: mean ± SD of three experiments
Description: (§1) The antiproliferative activity of the synthesised derivatives of the 3-methylbenzofuran series (4a–d, 6a–c, 8a–c and 11) and the 3-(morpholinomethyl)benzofuran series (15a–c, 16a–b, 17a–b and 18) was evaluated against non-small cell lung carcinoma (NSCLC) A549 and NCI-H23 cell lines, following the procedures of the MTT assay. […] 1. Anti-proliferative action toward human […] cell lines […]
(§2) The two examined human non-small cell lung carcinoma cell lines (A549 and NCI-H23) have been obtained from American Type Culture Collection (ATCC). The cells were maintained in Dulbecco's modified Eagle's medium (DMEM) supplemented with 10% heat inactivated fetal calf serum (GIBCO), penicillin (100 U/ml) and streptomycin (100 µg/ml) at 37 °C in humidified atmosphere containing 5% CO2. […]
(§3) flask in 5 ml of culture medium. The anti-proliferative activity of the tested 3-methylbenzofurans (4a-d, 6a-c, 8a-c and 11) and 3-(morpholinomethyl)benzofurans (15a-c, 16a-b, 17a-b and 18) measured in vitro using the MTT assay. Briefly, cells were plated out in 96-well microtiter plate (0.5X10^4 cells/well) and incubated for 24 h before treatment with the tested benzofurans to allow cells to attach to the bottom of the well of the plate. Tested benzofuranswere were dissolved in DMSO at 1 mg/ml immediately before use and diluted to the appropriate volume just before addition to the cell culture. […]
(§4) added to the cells (three wells were prepared for each individual dose). Cells were incubated with […]
(§5) At the end of exposure, MTT […]
(§6) solution in PBS (5 mg/ml) was then added to all well including no cell blank and left to incubate for 90 min. The formation of formazan crystals were visually confirmed using phase contract microscopy. DMSO (100 µl/well) was added to dissolve the formazan crystals with shaking for 10 min after which the absorbance was read at 590 nm against no cell blanks on a microplate reader.
(§7) The relation between percent of surviving fraction and log drug concentration is plotted to get the survival curve for each cell line.

NCI-H23 cells [1] = test: MTT anti-proliferative assay, NCI-H23; format: cell-based, human; settings: mean ± SD of three experiments
Description: as §1, §2, §3, §4, §5, §6, §7

[2] = system: M. tuberculosis ATCC 27294; test: Microplate Alamar Blue Assay, anti-tubercular activity; format: cell-based; settings: Mycobacterium tuberculosis, ATCC27294, 168 h, MABA, 7 days, read-out: MIC
VEGFR-2 = VEGFR-2 (Homo sapiens, UniProt P35968); test: VEGFR-2 kinase inhibitory assay (VEGFR2(KDR) Kinase Assay Kit)
Description: CA, USA), according to the manufacturer’s instructions.

NCI-H23 cells [3] = test: Cell cycle analysis (PI flow cytometry), NCI-H23; format: cell-based, human; settings: NCI-H23, 24 h at IC50 concentration; for S phase, fold vs control: attenuated; for G2/M phase cell population, fold vs control / sub-G1 phase cell population, fold vs control: augmentation; for G0–G1 phase, fold vs control: reduced
Description: (§8) Lung cancer A549 cells were treated with benzofuran 4b, whereas NCI-H23 cells were treated […]
twice with ice-cold phosphate buffered saline (PBS). Subsequently, the treated cells were collected by centrifugation, fixed in ice-cold 70% (v/v) ethanol, washed with PBS, re-suspended with 100 μg/mL RNase, stained with 40 μg/mL PI, and analyzed by flow cytometry using FACS Calibur (Becton Dickinson, BD, Franklin Lakes, NJ, USA). The cell cycle distributions were calculated using CellQuest software 5.1 (Becton Dickinson). […]

WI-38 cell line = test: Cytotoxic activity against non-tumorigenic WI-38 cell line; format: cell-based, human; settings: for Mean tumour selectivity: S.I. WI-38/A549 and NCI-H23; for IC50: non-tumorigenic human lung WI-38 cell line
Description: Antiproliferative agents are designed to inhibit the cellular growth of tumour cells selectively, while sparing the normal cells.

NCI-H23 cells [4] = test: Annexin V-FITC/PI apoptosis assay, NCI-H23; format: cell-based, human; settings: NCI-H23, at IC50 concentration; control 2.09%
Description: The apoptotic effect of the three benzofurans (4b, 15a and 16a) was evaluated using Annexin VFITC/PI (AV/PI) dual staining assay to validate if their observed cytotoxic effect is due to non-specific necrosis or physiological apoptosis. […] Moreover, the apoptotic effects of 3-(morpholinomethyl)benzofuran derivatives 15a and 16a were evaluated in NCI-H23 cancer cell line.
as §8
twice with ice-cold phosphate buffered saline (PBS). Subsequently, the treated cells were collected by centrifugation, fixed in ice-cold 70% (v/v) ethanol, washed with PBS, re-suspended with 100 μg/mL RNase, stained with 40 μg/mL PI, and analyzed by flow cytometry using FACS Calibur (Becton Dickinson, BD, Franklin Lakes, NJ, USA). The cell cycle distributions were calculated using CellQuest software 5.1 (Becton Dickinson).
3. Annexin V-FITC Apoptosis Assay […]
Cells were then rinsed in binding buffer and resuspended in 150 μL of binding buffer with the addition of 1 μL of DAPI (1 μg/μL in PBS). Cells were then analyzed using the flow cytometer BD FACS Canto II and the results were interpreted with FlowJo7.6.4 software (Tree Star, Ashland, 4. VEGFR-2 Kinase Inhibitory Activity […]

Sequence of VEGFR-2 (P35968 20-1356): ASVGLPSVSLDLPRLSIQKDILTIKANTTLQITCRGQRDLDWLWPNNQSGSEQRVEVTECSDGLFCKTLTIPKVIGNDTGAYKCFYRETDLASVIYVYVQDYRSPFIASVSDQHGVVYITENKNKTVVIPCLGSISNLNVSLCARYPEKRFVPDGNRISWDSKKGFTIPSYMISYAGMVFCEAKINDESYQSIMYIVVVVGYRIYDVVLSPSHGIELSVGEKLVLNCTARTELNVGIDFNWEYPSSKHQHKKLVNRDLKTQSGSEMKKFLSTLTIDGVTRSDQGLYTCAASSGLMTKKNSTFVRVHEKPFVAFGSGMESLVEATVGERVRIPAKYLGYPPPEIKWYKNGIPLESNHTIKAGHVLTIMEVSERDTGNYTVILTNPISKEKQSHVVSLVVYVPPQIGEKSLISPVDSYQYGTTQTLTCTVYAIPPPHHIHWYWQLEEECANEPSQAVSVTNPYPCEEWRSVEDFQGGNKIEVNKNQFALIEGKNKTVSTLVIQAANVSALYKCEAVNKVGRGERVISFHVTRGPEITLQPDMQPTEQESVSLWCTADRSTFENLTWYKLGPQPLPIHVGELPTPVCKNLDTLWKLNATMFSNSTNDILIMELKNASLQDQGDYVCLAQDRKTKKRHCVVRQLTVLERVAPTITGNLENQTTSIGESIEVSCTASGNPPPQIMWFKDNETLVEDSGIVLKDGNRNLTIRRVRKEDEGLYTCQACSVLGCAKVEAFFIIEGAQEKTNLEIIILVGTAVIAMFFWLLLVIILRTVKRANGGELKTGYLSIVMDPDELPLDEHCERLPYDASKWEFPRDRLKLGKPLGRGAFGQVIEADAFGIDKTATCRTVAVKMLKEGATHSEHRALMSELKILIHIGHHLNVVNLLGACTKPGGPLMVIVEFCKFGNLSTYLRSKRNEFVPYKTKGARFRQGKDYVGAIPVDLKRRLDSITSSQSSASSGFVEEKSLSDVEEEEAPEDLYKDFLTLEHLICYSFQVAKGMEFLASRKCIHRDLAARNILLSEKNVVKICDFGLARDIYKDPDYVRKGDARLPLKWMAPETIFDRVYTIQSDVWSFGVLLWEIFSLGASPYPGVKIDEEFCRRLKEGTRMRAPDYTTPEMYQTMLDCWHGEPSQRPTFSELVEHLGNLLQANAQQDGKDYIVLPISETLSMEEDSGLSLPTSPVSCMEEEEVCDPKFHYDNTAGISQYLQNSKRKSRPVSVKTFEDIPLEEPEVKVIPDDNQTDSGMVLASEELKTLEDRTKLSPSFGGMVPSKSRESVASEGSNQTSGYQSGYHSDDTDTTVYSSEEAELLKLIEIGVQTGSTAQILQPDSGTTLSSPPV

| IC50 (A549 cells; Homo sapiens, A549, 48 h) | IC50 (NCI-H23 cells [1]; Homo sapiens, NCI-H23, 48 h) | melting point | Structure (SMILES) | further results |
| --- | --- | --- | --- | --- |
| 10.1 ± 0.55 µM | 34.2 ± 1.71 µM | 172 to 174 °C | COc1cccc(NC(=S)NNC(=O)c2oc3ccccc3c2C)c1 [Compound 4a, N-(3-Methoxyphenyl)-2–(3-methylbenzofuran-2-carbonyl)hydrazine-1-carbothioamide] | – |
| – | 24.36 ± 0.12 µM | 170 to 172 °C | Cc1c(C(=O)NNC(=S)Nc2cccc(C(F)(F)F)c2)oc2ccccc12 [Compound 4c, 2-(3-Methylbenzofuran-2-carbonyl)-N-(3-(trifluoromethyl)phenyl)hydrazine-1-carbothioamide] | – |
| 12.8 ± 0.7 µM | 67.2 ± 3.36 µM | 206 to 210 °C | Cc1c(C(=O)NNC(=S)Nc2ccc(F)cc2)oc2ccccc12 [Compound 4d, N-(4-Fluorophenyl)-2-(3-methylbenzofuran-2-carbonyl)hydrazine-1-carbothioamide] | – |
| 15.1 ± 0.83 µM | 56.7 ± 2.83 µM | 162 to 164 °C | COc1cccc(NC(=O)NNC(=O)c2oc3ccccc3c2C)c1 [Compound 6a, N-(3-Methoxyphenyl)-2-(3-methylbenzofuran-2-carbonyl)hydrazine-1-carboxamide] | – |
| 12.5 ± 0.68 µM | 9.24 ± 0.46 µM | 236 to 240 °C | COc1ccc(NC(=O)NNC(=O)c2oc3ccccc3c2C)cc1 [Compound 6b, N-(4-Methoxyphenyl)-2-(3-methylbenzofuran-2-carbonyl)hydrazine-1-carboxamide] | – |
| 47 ± 2.57 µM | 24.5 ± 1.23 µM | 240 to 242 °C | Cc1c(C(=O)NNC(=O)Nc2ccc(Cl)c(C(F)(F)F)c2)oc2ccccc12 [Compound 6c, N-(4-Chloro-3-(trifluoromethyl)phenyl)-2-(3-methylbenzofuran-2-carbonyl)hydrazine-1-carboxamide] | – |
| 44.1 ± 2.41 µM | 14.9 ± 0.74 µM | 242 to 244 °C | COc1cccc(C=NNC(=O)c2oc3ccccc3c2C)c1 [Compound 8a, N'-(3-Methoxybenzylidene)-3-methylbenzofuran-2-carbohydrazide] | – |
| 9.2 ± 0.5 µM | 6.15 ± 0.31 µM | 236 to 240 °C | COc1ccc(C=NNC(=O)c2oc3ccccc3c2C)cc1 [Compound 8b, N'-(4-Methoxybenzylidene)-3-methylbenzofuran-2-carbohydrazide] | – |
| 16.4 ± 0.89 µM | 14 ± 0.7 µM | 160 °C | COc1ccc(C(C)=NNC(=O)c2oc3ccccc3c2C)cc1 [Compound 8c, N'-(1-(4-Methoxyphenyl)ethylidene)-3-methylbenzofuran-2-carbohydrazide] | – |
| 30.2 ± 1.65 µM | 12.1 ± 0.6 µM | 180 to 182 °C | Cc1c(C(=O)NN=C2CCCc3ccccc32)oc2ccccc12 [Compound 11, N'-(3,4-Dihydronaphthalen-1(2H)-ylidene)-3-methylbenzofuran-2-carbohydrazide] | – |
| 5.7 ± 0.31 µM | 68.9 ± 3.44 µM | 198 to 200 °C | COc1ccc(NC(=S)NNC(=O)c2oc3ccccc3c2CN2CCOCC2)cc1 [Compound 15b, N-(4-Methoxyphenyl)-2-(3-(morpholinomethyl)benzofuran-2-carbonyl)hydrazine-1-carbothioamide] | – |
| 6.3 ± 0.34 µM | 2.21 µM | 210 to 212 °C | O=C(NNC(=S)Nc1cccc(C(F)(F)F)c1)c1oc2ccccc2c1CN1CCOCC1 [Compound 15c, 2-(3-(Morpholinomethyl)benzofuran-2-carbonyl)-N-(3-(trifluoromethyl)phenyl)hydrazine-1-carbothioamide] | IC50 (NCI-H23 cells [1]; 48 h): 2.22 ± 0.11 µM |
| 18.9 ± 1.03 µM | 5.09 ± 0.25 µM | 242 to 244 °C | COc1ccc(NC(=O)NNC(=O)c2oc3ccccc3c2CN2CCOCC2)cc1 [Compound 16b, N-(4-Methoxyphenyl)-2-(3-(morpholinomethyl)benzofuran-2-carbonyl)hydrazine-1-carboxamide] | – |
| 6.01 ± 0.03 µM | 23 ± 1.15 µM | 174 °C | O=C(NN=Cc1ccccc1)c1oc2ccccc2c1CN1CCOCC1 [Compound 17a, N'-Benzylidene-3-(morpholinomethyl)benzofuran-2-carbohydrazide] | – |
| 10.8 ± 0.59 µM | 3.04 ± 0.15 µM | 200 °C | COc1ccc(C=NNC(=O)c2oc3ccccc3c2CN2CCOCC2)cc1 [Compound 17b, N'-(4-Methoxybenzylidene)-3-(morpholinomethyl)benzofuran-2-carbohydrazide] | – |
| 3.7 ± 0.2 µM | 29.8 ± 1.49 µM | 200 °C | O=C(NN=C1CCCc2ccccc21)c1oc2ccccc2c1CN1CCOCC1 [Compound 18, N'-(3,4-Dihydronaphthalen-1(2H)-ylidene)-3-(morpholinomethyl)benzofuran-2-carbohydrazide] | – |
| – | – | – | NNC(=O)c1ccncc1 [INH, Isoniazid, reference compound] | MIC [2]: 0.24 µg/mL (≈ 1.75 µM) |

| Structure (SMILES) | IC50 (A549 cells; Homo sapiens, A549, 48 h) | IC50 (NCI-H23 cells [1]; Homo sapiens, NCI-H23, 48 h) | melting point | further results |
| --- | --- | --- | --- | --- |
| COc1cccc(NC(=S)NNC(=O)c2oc3ccccc3c2CN2CCOCC2)c1 [Compound 15a, N-(3-Methoxyphenyl)-2-(3-(morpholinomethyl)benzofuran-2-carbonyl)hydrazine-1-carbothioamide] | 5.27 ± 0.29 µM | 2.52 ± 0.13 µM | 190 to 192 °C | IC50 (A549 cells; 48 h): 5.27 ± 0.29 µM; MIC [2]: 62.5 µg/mL (≈ 142 µM); IC50 (VEGFR-2): 0.133 ± 0.0078 µM; S phase, fold vs control (NCI-H23 cells [3]): 0.50 fold; G2/M phase cell population, fold vs control (NCI-H23 cells [3]): 5.33 fold; sub-G1 phase cell population, fold vs control (NCI-H23 cells [3]): 13.13 fold; G0–G1 phase, fold vs control (NCI-H23 cells [3]): 0.56 fold; Mean tumour selectivity (WI-38 cell line): 8.4; IC50 (WI-38 cell line): 32.8 ± 1.98 µM; IC50 (NCI-H23 cells [1]; 48 h): 2.52 ± 0.13 µM; total apoptosis (NCI-H23 cells [4]): 34.59% |
| COc1cccc(NC(=O)NNC(=O)c2oc3ccccc3c2CN2CCOCC2)c1 [Compound 16a, N-(3-Methoxyphenyl)-2-(3-(morpholinomethyl)benzofuran-2-carbonyl)hydrazine-1-carboxamide] | 1.52 µM | 0.49 ± 0.02 µM | – | IC50 (A549 cells; 48 h): 1.5 ± 0.08 µM; MIC [2]: 125 µg/mL (≈ 294 µM); IC50 (VEGFR-2): 0.0454 ± 0.0027 µM; S phase, fold vs control (NCI-H23 cells [3]): 0.51 fold; G2/M phase cell population, fold vs control (NCI-H23 cells [3]): 6.90 fold; sub-G1 phase cell population, fold vs control (NCI-H23 cells [3]): 12.54 fold; G0–G1 phase, fold vs control (NCI-H23 cells [3]): 0.47 fold; Mean tumour selectivity (WI-38 cell line): 12.9; IC50 (WI-38 cell line): 12.9 ± 0.78 µM; total apoptosis (NCI-H23 cells [4]): 36.81% |
